In ChEMBL document CHEMBL4842362, “From virtual screening hits targeting a cryptic pocket in BACE-1 to a nontoxic brain permeable multitarget anti-Alzheimer lead with disease-modifying and cognition-enhancing effects” (Eur J Med Chem, 2021):
In brackets after ≈: the same amount, converted by molar mass. Activity calls are given as the source filed them. The rule behind the calls is not given here.

Columns and labels:
[1] = system: Mus musculus; assay: Effect on neuroinflammation in SAMP8 mouse assessed as decrease in IL-6 gene expression hippocampus tissue at 2 mg/kg, po measured after 4 weeks by RT-PCR analysis; type: functional, organism-based
[2] = Antioxidant activity assessed as free radical scavenging activity at 500 uM incubated for 30 mins under dark condition by DPPH assay; type: functional
[3] = system: Mus musculus; assay: Cognitive enhancing effect in SAMP8 mouse assessed as reversal of spatial memory impairment by measuring discrimination index at 2 mg/kg, po administered for 4 weeks by object location test; type: functional, organism-based
[4] = Kinetic solubility of the compound in DMSO/PBS buffer measured after 2 hrs by nephalometric analysis; type: physicochemical; settings: DMSO/PBS buffer, read-out: Kinetic_solubility
[5] = Permeability of the compound in PBS/EtOH by PAMPA-BBB assay; type: ADME; settings: read-out: permeability
[6] = system: Mus musculus; assay: Effect on amyloid pathology in hippocampal tissue of SAMP8 mouse assessed as increase in neprilysin (Nep) gene expression at 2 mg/kg, po measured after 4 weeks by RT-PCR analysis; type: functional, organism-based
[7] = target: T1, Cholinesterase (Homo sapiens, UniProt P06276); assay: Potency index, ratio of rhein-huprine hybrid IC50 to test compound IC50 for inhibition of human serum BChE using butyrylthiocholine iodide as a substrate preincubated for 20 mins followed by substrate addition by spectrophotometric analysis; type: cell-free
T1 sequence (P06276 whole entry): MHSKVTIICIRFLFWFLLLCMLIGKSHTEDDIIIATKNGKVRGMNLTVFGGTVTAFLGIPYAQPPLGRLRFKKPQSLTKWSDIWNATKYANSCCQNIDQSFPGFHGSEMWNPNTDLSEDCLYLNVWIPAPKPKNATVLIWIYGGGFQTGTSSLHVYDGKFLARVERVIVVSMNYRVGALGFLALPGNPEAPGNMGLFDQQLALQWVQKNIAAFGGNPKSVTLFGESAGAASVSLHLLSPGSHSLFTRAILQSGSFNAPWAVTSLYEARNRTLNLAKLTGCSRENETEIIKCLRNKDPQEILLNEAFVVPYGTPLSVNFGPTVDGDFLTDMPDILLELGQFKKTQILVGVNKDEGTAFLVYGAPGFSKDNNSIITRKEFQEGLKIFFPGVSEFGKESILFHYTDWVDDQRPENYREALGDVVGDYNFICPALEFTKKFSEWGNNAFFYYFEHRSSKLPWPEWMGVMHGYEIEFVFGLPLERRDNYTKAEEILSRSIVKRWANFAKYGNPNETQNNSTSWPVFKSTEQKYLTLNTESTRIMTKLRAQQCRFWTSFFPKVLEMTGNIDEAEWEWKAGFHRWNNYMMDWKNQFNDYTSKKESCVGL

[8] = target: T2, Acetylcholinesterase (Homo sapiens, UniProt P22303); assay: Potency index, ratio of rhein-huprine hybrid IC50 to test compound IC50 for inhibition of human recombinant AChE using acetylthiocholine iodide as a substrate preincubated for 20 mins followed by substrate addition by spectrophotometric analysis
T2 sequence (P22303 whole entry): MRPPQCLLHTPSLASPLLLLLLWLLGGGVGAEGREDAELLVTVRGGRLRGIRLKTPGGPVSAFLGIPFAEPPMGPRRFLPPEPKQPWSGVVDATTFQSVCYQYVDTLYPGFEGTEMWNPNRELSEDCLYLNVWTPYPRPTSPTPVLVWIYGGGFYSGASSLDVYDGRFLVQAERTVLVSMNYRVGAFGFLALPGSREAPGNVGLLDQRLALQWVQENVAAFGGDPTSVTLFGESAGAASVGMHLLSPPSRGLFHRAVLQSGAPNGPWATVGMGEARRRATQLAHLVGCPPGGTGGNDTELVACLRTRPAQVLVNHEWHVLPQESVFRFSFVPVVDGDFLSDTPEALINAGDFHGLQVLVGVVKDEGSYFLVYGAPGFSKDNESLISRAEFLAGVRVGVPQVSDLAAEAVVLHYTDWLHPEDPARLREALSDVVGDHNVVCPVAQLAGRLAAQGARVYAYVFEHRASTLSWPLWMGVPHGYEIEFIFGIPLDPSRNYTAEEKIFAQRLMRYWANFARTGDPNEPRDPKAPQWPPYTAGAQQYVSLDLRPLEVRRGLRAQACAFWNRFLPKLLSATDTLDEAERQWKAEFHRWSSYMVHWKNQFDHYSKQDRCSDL

[9] = Toxicity in SAMP8 mouse assessed as mortality at 2 mg/kg, po for 4 weeks; type: organism-based; settings: in vivo, 672 h
[10] = system: Mus musculus; assay: Cognitive enhancing effect in SAMP8 mouse assessed as improvement of short term retrieval by measuring discrimination index at 2 mg/kg, po administered for 4 weeks followed by 10 mins acquisition trail and measured after 2 hrs by novel object recognition test; type: functional, organism-based
[11] = system: Mus musculus; assay: Effect on neuroinflammation in SAMP8 mouse assessed as decrease in TNF-alpha gene expression hippocampus tissue at 2 mg/kg, po measured after 4 weeks by RT-PCR analysis; type: functional, organism-based
[12] = system: Mus musculus; assay: Cognitive enhancing effect in SAMP8 mouse assessed as improvement of long term retrieval by measuring discrimination index at 2 mg/kg, po administered for 4 weeks followed by 10 mins acquisition trail and measured after 24 hrs by novel object recognition test; type: functional, organism-based
[13] = target: T1, Cholinesterase; assay: Potency index, ratio of huprine-Y IC50 to test compound IC50 for inhibition of human serum BChE using butyrylthiocholine iodide as a substrate preincubated for 20 mins followed by substrate addition by spectrophotometric analysis; type: cell-free
[14] = system: Mus musculus; assay: In vivo inhibition of GSK3 beta in SAMP8 mouse assessed as reduction in tau phosphorylation at Ser 404 residue at 2 mg/kg, po measured after 4 weeks by western blot analysis; type: functional, organism-based
[15] = system: Mus musculus; assay: Effect on amyloid pathology in hippocampal tissue of SAMP8 mouse assessed as decrease in Bace-1 gene expression at 2 mg/kg, po measured after 4 weeks by RT-PCR analysis; type: functional, organism-based
[16] = Neurotoxicity in mouse HT-22 cells assessed as decrease in cell viability at up to 25 uM by MTT assay; type: cell-based
[17] = Toxicity in SAMP8 mouse assessed as toxic effects at 2 mg/kg, po for 4 weeks; type: organism-based; settings: in vivo, 672 h
[18] = target: Amyloid-beta precursor protein (Homo sapiens) (UniProt P05067); assay: Inhibition of amyloid beta (1 to 42) (unknown origin) aggregation in Escherichia coli BL21 (DE3) at 10 uM incubated overnight by thioflavin S based fluorescence analysis relative to control
Amyloid-beta precursor protein (Homo sapiens), sequence (P05067 whole entry): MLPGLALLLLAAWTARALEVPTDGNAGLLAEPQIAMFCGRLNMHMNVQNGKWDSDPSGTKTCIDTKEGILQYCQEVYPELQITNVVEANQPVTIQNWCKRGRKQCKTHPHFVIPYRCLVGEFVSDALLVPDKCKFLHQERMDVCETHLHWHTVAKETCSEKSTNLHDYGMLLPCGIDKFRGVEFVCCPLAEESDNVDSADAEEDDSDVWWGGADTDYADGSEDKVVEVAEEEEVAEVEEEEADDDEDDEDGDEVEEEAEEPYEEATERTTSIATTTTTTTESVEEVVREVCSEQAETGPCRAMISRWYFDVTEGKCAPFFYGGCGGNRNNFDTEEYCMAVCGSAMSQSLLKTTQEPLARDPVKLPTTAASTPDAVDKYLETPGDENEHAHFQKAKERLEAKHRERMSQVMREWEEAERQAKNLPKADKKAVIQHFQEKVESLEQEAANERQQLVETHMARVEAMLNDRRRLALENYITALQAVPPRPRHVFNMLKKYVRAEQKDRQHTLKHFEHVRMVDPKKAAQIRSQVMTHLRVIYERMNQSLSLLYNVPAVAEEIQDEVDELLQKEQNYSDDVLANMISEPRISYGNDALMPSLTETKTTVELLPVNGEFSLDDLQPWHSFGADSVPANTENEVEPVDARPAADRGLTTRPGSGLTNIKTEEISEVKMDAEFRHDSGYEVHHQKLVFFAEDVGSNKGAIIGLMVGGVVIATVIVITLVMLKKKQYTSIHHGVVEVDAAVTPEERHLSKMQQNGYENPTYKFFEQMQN

[19] = system: Mus musculus; assay: Modulation of oxidative stress in SAMP8 mouse assessed as increase in heme oxygenase 1 (Hmox1) gene expression in hippocampus tissue at 2 mg/kg, po measured after 4 weeks by RT-PCR analysis; type: functional, organism-based
[20] = target: T2, Acetylcholinesterase
Description: Inhibition of human recombinant AChE using acetylthiocholine iodide as a substrate preincubated for 20 mins followed by substrate addition by spectrophotometric analysis

[21] = system: Mus musculus; assay: Effect on amyloid pathology in hippocampal tissue of SAMP8 mouse assessed as increase in Adam10 gene expression at 2 mg/kg, po measured after 4 weeks by RT-PCR analysis; type: functional, organism-based
[22] = system: Mus musculus; assay: In vivo inhibition of BACE-1 in hippocampal tissue of SAMP8 mouse assessed as increase in sAPP alpha levels at 2 mg/kg, po measured after 4 weeks by western blot analysis; type: functional, organism-based; settings: Hippocampus
[23] = system: HT-22; assay: Neuroprotective activity against glutamate induced neuronal death in mouse HT-22 cells assessed as increase in cell viability at 1 to 25 uM by MTT assay; type: functional, cell-based; settings: dose 1-25 µM
[24] = system: Mus musculus; assay: Modulation of oxidative stress in SAMP8 mouse assessed as increase in cox-2 gene expression in hippocampus tissue at 2 mg/kg, po measured after 4 weeks by RT-PCR analysis; type: functional, organism-based
[25] = Acute toxicity in zebra fish embryos assessed as lethality measured every 24 hrs for 72 hrs; design: species or system Danio rerio; settings: zebrafish
[26] = target: T1, Cholinesterase; assay: Potency index, ratio of donepezil IC50 to test compound IC50 for inhibition of human serum BChE using butyrylthiocholine iodide as a substrate preincubated for 20 mins followed by substrate addition by spectrophotometric analysis; type: cell-free
[27] = system: Mus musculus; assay: Effect on neuroinflammation in SAMP8 mouse assessed as decrease in IL-1 beta gene expression hippocampus tissue at 2 mg/kg, po measured after 4 weeks by RT-PCR analysis; type: functional, organism-based
[28] = system: Mus musculus; assay: Effect on neuroinflammation in SAMP8 mouse assessed as reduction in Cxcl10 gene expression hippocampus tissue at 2 mg/kg, po measured after 4 weeks by RT-PCR analysis; type: functional, organism-based
[29] = target: T1, Cholinesterase
Description: Inhibition of human serum BChE using butyrylthiocholine iodide as a substrate preincubated for 20 mins followed by substrate addition by spectrophotometric analysis

[30] = system: Mus musculus; assay: In vivo inhibition of BACE-1 in hippocampal tissue of SAMP8 mouse assessed as reduction in sAPPbeta levels at 2 mg/kg, po measured after 4 weeks by Western blot analysis; type: functional, organism-based; settings: Hippocampus
[31] = system: Mus musculus; assay: Effect on synaptic plasticity in SAMP8 mouse assessed as increase in PSD95 protein levels in hippocampus tissue at 2 mg/kg, po measured after 4 weeks by western blot analysis; type: functional, organism-based
[32] = target: T2, Acetylcholinesterase; assay: Potency index, ratio of donepezil IC50 to test compound IC50 for inhibition of human recombinant AChE using acetylthiocholine iodide as a substrate preincubated for 20 mins followed by substrate addition by spectrophotometric analysis
[33] = system: Mus musculus; assay: Effect on synaptic plasticity in SAMP8 mouse assessed as increase in SYN protein levels in hippocampus tissue at 2 mg/kg, po measured after 4 weeks by western blot analysis; type: functional, organism-based
[34] = system: Mus musculus; assay: Effect on amyloid pathology in hippocampal tissue of SAMP8 mouse assessed as increase in insulin-degrading enzyme (Ide) gene expression at 2 mg/kg, po measured after 4 weeks by RT-PCR analysis; type: functional, organism-based
[35] = target: Beta-secretase 1 (Homo sapiens, UniProt P56817); assay: Inhibition of human recombinant BACE-1 expressed in Escherichia coli using panvera peptide as a substrate incubated for 1 hr by fluorescence analysis
Beta-secretase 1, sequence (P56817 whole entry): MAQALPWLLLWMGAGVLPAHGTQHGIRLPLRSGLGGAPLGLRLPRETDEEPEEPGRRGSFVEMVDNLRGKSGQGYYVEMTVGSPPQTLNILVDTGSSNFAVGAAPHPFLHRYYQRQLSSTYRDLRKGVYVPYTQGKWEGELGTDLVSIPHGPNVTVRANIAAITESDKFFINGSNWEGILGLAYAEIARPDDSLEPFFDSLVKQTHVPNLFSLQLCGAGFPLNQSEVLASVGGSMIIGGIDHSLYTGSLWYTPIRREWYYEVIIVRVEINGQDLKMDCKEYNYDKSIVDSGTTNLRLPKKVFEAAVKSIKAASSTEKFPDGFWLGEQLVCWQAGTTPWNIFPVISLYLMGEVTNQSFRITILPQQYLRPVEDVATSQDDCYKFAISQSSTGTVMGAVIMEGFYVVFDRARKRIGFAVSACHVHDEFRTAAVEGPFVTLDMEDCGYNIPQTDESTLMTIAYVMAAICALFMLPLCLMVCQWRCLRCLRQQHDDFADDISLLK

[36] = target: Microtubule-associated protein tau (Homo sapiens) (UniProt P10636); assay: Inhibition of tau aggregation (unknown origin) in Escherichia coli BL21 (DE3) at 10 uM incubated overnight by thioflavin S based fluorescence analysis relative to control
Microtubule-associated protein tau (Homo sapiens), sequence (P10636 whole entry): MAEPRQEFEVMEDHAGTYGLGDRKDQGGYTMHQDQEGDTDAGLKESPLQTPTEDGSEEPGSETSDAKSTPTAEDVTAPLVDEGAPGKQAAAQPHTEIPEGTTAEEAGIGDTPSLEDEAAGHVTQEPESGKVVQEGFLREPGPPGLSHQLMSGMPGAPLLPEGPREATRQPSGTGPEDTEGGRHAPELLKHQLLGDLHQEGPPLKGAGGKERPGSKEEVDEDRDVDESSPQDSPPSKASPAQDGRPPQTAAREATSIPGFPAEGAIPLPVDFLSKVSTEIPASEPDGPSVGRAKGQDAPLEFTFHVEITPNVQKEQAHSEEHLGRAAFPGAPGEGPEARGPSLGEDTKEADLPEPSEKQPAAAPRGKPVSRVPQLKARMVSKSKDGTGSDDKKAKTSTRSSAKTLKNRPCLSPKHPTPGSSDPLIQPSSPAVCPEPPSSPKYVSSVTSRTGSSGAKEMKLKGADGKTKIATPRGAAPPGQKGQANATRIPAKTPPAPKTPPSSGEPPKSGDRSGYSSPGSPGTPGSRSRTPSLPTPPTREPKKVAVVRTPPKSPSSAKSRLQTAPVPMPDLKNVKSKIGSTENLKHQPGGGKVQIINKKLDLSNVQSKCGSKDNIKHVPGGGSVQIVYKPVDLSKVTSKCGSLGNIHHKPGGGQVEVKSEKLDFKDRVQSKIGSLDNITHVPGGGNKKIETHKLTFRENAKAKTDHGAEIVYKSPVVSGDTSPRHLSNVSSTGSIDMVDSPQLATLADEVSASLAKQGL

## CC1=CC2Cc3nc4cc(Cl)ccc4c(NCCCCCCCCCNC(=O)c4cc(O)cc(O)c4)c3C(C1)C2 (stereo unspecified)
[1]
  Activity: Active
[2]
  Activity: inactive
[3]
  Activity: Active
[4]
  solubility kinetic at 2 h: 10.8 µg/mL (≈ 19.2 µM)
[5]
  Papp: 9.4 ×10⁻⁶ cm/s
[6]
  Activity: Active
[7]
  Ratio IC50: 7
[8]
  Ratio IC50: < 9
[9]
  Activity: Non-Toxic
[10]
  Activity: Active
[11]
  Activity: Active
[12]
  Activity: Active
[13]
  Ratio IC50: 2
[14]
  inhibition: Active
[15]
  Activity: Active
[16]
  Activity: Non-Toxic
[17]
  Activity: Non-Toxic
[18]
  inhibition: 49.5%
[19]
  Activity: Active
[20]
  IC50: 0.00257 µM
[21]
  Activity: Active
[22]
  Activity: Active
[23]
  Activity: inactive
[24]
  Activity: inactive
[25]
  LC50 at 72 h: > 100 µM
[26]
  Ratio IC50: 79
[27]
  Activity: Active
[28]
  Activity: Active
[29]
  IC50: 0.043 µM
[30]
  Activity: Active
[31]
  Activity: Active
[32]
  Ratio IC50: < 65
[33]
  Activity: Active
[34]
  Activity: inactive
[35]
  IC50: 2.71 µM
[36]
  inhibition: 65.8%
